In patent publication US12404242B2, “Compositions and methods for making and using small molecules in the treatment of cancer” (Reglagene, Inc., priority 2021, dated 2025):
In brackets after ≈: the same amount, converted by molar mass.

Columns and labels:
[1] = system: LNCaP cells; assay: Cell viability (AlamarBlue), LNCaP prostate cancer cells; assay type: cell-based, human; conditions: 72 hours of treatment
In short: (§1)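 Following a 72-hour incubation with escalating compound doses, applied one day after seeding, AlamarBlue fluorescence gave viability relative to untreated cells, from which half-maximal effective concentrations were calculated.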

[2] = system: 22RV1 cells; assay: Cell viability (AlamarBlue), 22RV1 prostate cancer cells; assay type: cell-based, human; conditions: 72 hours of treatment
In short: as §1

[3] = system: MCF7 cells; assay: Cell viability (AlamarBlue), MCF7 breast cancer cells; assay type: cell-based; conditions: Homo sapiens, 72 hours of treatment
Method: (§2) In another exemplary method, half maximal effective concentration (EC50) was determined for some compounds and their isomers as disclosed herein in a variety of human cancer cell lines. In brief, cells from two prostate cancer cell lines (LNCaP, 22RV1), one glioblastoma cell line (U87), one breast cancer cell line (MCF7), a glioma cell line (LN18), a normal prostate cell line (RWPE1), and a glioblastoma cell line (T98G) were plated in a multi-well plate. After 24 hours, one of the compounds herein was added to the well at increasing concentrations. After 72 hours of treatment, cell viability was assessed using AlamrBlue® (Invitrogen) and fluorescence was read using the CLARIOstar Plus Multilabel Plate Reader (BMG Labtech). Samples were normalized to no treatment controls. EC50 values were determined using GraphPad Prism.

[4] = system: RWPE1 cells; assay: Cell viability (AlamarBlue), RWPE1 normal prostate cells; assay type: cell-based, human; set-up: key to EC50 (μM) in RWPE1 cells: Inactive: less than 50% inhibition at the highest concentration tested at 50 μM; conditions: normal prostate cell line; for EC50 (μM) in RWPE1 cells: 72 hours of treatment
Method: as §2

[5] = system: U87 cells; assay: Cell viability (AlamarBlue), U87 glioblastoma cells; assay type: cell-based, human; set-up: key to EC50 (μM) in U87 cells: Inactive: less than 50% inhibition at the highest concentration tested at 50 μM; conditions: 72 hours of treatment
In short: as §1

[6] = Kinetic solubility in aqueous PBS buffer (HPLC-MS); assay type: physicochemical; conditions: kinetic from dmso stock, DMSO stock mixed with aqueous PBS buffer, filtered, read-out: Kinetic Solubility
In short: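 A concentrated DMSO stock was mixed with aqueous PBS buffer and filtered. The filtrate was quantified against an HPLC-MS calibration curve.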

Compound	EC50 [1] [µM]	EC50 [2] [µM]	EC50 [3] [µM]	EC50 (μM) in RWPE1 cells [4]	EC50 [5] [µM]	EC50 ([1]; Homo sapiens, LNCaP, 72 h) [µM]	EC50 ([2]; Homo sapiens, 22Rv1, 72 h) [µM]	solubility kinetic [6] [µM]	EC50 ([5]; Homo sapiens, U-87 MG, 72 h) [µM]	EC50 ([4]; Homo sapiens, RWPE-1, 72 hours of treatment) [µM]	EC50 (μM) in U87 cells [5]
COC1CC(C(=O)NC(=O)Nc2ccc(Oc3ncc(Cl)cn3)c(C)c2)C1 (single isomer, unassigned) [Compound 20A, N-((4-((5-chloropyrimidin-2-yl)oxy)-3-methylphenyl)carbamoyl)-3-methoxycyclobutane-1-carboxamide]	0.87	1.5	5.8	Inactive	2.6						
COC1CCC(C(=O)NC(=O)Nc2ccc(Oc3ncc(Cl)cn3)c(C)c2)CC1 (stereo not shown) [Compound 1, N-((4-((5-chloropyrimidin-2-yl)oxy)-3-methylphenyl)carbamoyl)-4-methoxycyclohexane-1-carboxamide]			3.4	Inactive		2.4	3.7	4.9 (≈ 2.05 µg/mL)	6		
COC1CCC(C(=O)NC(=O)Nc2ccc(Oc3ccc(Cl)cn3)c(C)c2)CC1 (stereo not shown) [Compound 7, N-((4-((5-chloropyridin-2-yl)oxy)-3-methylphenyl)carbamoyl)-4-methoxycyclohexane-1-carboxamide]			2.4	Inactive		2.8	2.9	0.49 (≈ 0.205 µg/mL)	4.4		
COC1CCC(C(=O)NC(=O)Nc2ccc(Oc3ncc(F)cn3)c(C)c2)CC1 (stereo not shown) [Compound 8, 3-{4-[(5-fluoropyrimidin-2-yl)oxy]-3-methylphenyl}-1-(4-methoxycyclohexanecarbonyl)urea]			24.3	Inactive		27.5	26		36		
COC1CCC(C(=O)NC(=O)Nc2ccc(Oc3ccc(F)cn3)c(C)c2)CC1 (stereo not shown) [Compound 9, 3-{4-[(5-fluoropyridin-2-yl)oxy]-3-methylphenyl}-1-(4-methoxycyclohexanecarbonyl)urea]			8.5	Inactive		11.5	5.1		4.9		
COC1CCC(C(=O)NC(=O)Nc2ccc(Oc3ncccn3)c(C)c2)CC1 (stereo not shown) [Compound 10, 1-(4-methoxycyclohexanecarbonyl)-3-[3-methyl-4-(pyrimidin-2-yloxy)phenyl]urea]			12.9	Inactive		13	12.5		33.5		
COC1CCC(C(=O)NC(=O)Nc2ccc(Oc3ccc(Cl)cn3)c(F)c2)CC1 (stereo not shown) [Compound 12, N-((4-((5-chloropyridin-2-yl)oxy)-3-fluorophenyl)carbamoyl)-4-methoxycyclohexane-1-carboxamide]			1.9			3.1	1.9	0.28 (≈ 0.118 µg/mL)	1.9	6.1	
Cc1cc(NC(=O)NC(=O)C2CCCCC2)ccc1Oc1ncc(Cl)cn1 [Compound 71, N-((4-((5-chloropyrimidin-2-yl)oxy)-3-methylphenyl)carbamoyl)cyclohexanecarboxamide]			9.4	Inactive		10.4	12.5				Inactive
